Source: PMC10419416, “Fighting Pseudomonas aeruginosa Infections: Antibacterial and Antibiofilm Activity of D-Q53 CecB, a Synthetic Analog of a Silkworm Natural Cecropin B Variant” (International Journal of Molecular Sciences, 2023)
Read-outs that look alike come from different tables or passages of the source. Non-standard residues stand in square brackets, D forms with d. Residues, ends and D or L forms follow the SMILES beside them. No end group written: not given here.

Assays:
[1] = system: T1, human neutrophil elastase; test: Enzymatic digestion with human neutrophil elastase, RP-HPLC; assay type: in vitro ADME; details: human, isolated enzyme elastase, pH 7.5
T1 construct: purchased Merck
Method: L- and D-Q53 CecB peptides, as well as the human LL-37 peptide (Merck, Burlington, MA, USA), were dissolved in 10 mM Tris-HCl, pH 7.5, at a final concentration of 1 mg/mL. Subsequently, 120 μL of each peptide solution were incubated at 37 °C with 20 U of human leukocyte elastase (Merck) or P. aeruginosa elastase (Elastin Products Company, Owensville, MO, USA) and 5 μL of 10 mM Tris-HCl, pH 7.5. At given time intervals (30, 60, 120, and 300 min), a volume corresponding to 30 μg of each peptide was diluted in 70 μL of 1% trifluoroacetic acid (TFA) to stop the reaction. Peptide suspensions,v without any enzyme (undigested controls), were processed in parallel. Each solution was analyzed by RP-HPLC, using a Phenomenex LC C18 analytical column (300 Å, […], 250 × 4.6 mm; Phenomenex, Torrance, CA, USA) and a Widepore C18 security guard cartridge (4 × 3.0 mm; Phenomenex, Torrance, CA, USA), in a 30 min-linear Acetonitrile (ACN) gradient (from 0% to 40% for L- and D-Q53 CecB peptides; from 20% to 60% for LL-37). A Waters Alliance 2695 Separations Module connected to a 996 PDA (Waters, Milford, MA, USA) was employed for RP-HPLC.

[2] = system: P. aeruginosa ATCC 25668 (lasI, rpoS, fimX, pslA, pelA, algD); test: Real-time qPCR of genes involved in biofilm formation; assay type: cell-based, Pseudomonas aeruginosa; details: 20 h; 1/2 MIC L- or 1/4 MIC D-Q53 CecB; normalised to rplU
Method: Bacteria were collected after centrifugation and stored in Trizol Reagent (Ambion, Waltham, MA, USA) at −80 °C, until use. Total RNA was extracted using the Direct-zol RNA MiniPrep kit (Zymo Research, Irvine, CA, USA). The complementary DNA (cDNA) was synthesized using the Maxima™ H Minus cDNA Synthesis Master Mix with dsDNase (Molecular biology, Thermo Scientific). Each qPCR reaction was performed in triplicate, using the GoTaq qPCR Master Mix (Promega, Madison, WI, USA) and a CFX96 Real-Time PCR Detection System (Bio-Rad, Hercules, CA, USA), following the manufacturer’s instructions. The amplification conditions were 95 °C 2 min, (15 s at 95 °C, 1 min at the appropriate annealing temperature Ta, as in Table 5) ×40 cycles. The rplU gene, coding the 50 S ribosomal protein, was used to normalize qPCR data as in [36]. Fold changes were calculated by the 2^−ΔΔCT analysis method.

[3] = system: P. aeruginosa biofilms (ATCC 25668); test: Confocal live/dead staining of biofilm-embedded cells; assay type: cell-based, Pseudomonas aeruginosa; details: 1 h treatment with 1 MIC (2.2 µM) of 24 h-old biofilm; SYTO 9 / Propidium Iodide
Method: Bacteria cells (1 × 10^6 cells/mL) were grown in Permanox four-wells chamber slide systems (1.8 cm^2/well; Nunc® Lab-Tek® Chamber Slide™ system) at 37 °C for 24 h without agitation to allow biofilm formation. After washing, biofilms were treated with 2.2 μM L- or D-Q53 CecB peptide for 1 h at 37 °C without agitation. Negative controls, treated with LB only, were followed in parallel.
To visualize live/dead bacteria, samples were stained with 12. 5 μM SYTO™ 9 (Thermo Fisher Scientific) (green, total cells) and 70 μM Propidium Iodide (Merck) (red, dead cells) for 30 min. After washing with PBS, samples were mounted in VECTASHIELD® mounting medium (Vector Laboratories) and observed using a Leica TCS SP5 II confocal microscope, using a ×63 oil immersion objective and a digital magnification of ×3. Optical sections (Z-series) were taken at 0.13 μm intervals. For each condition, experiments were repeated at least twice.
To detect bacteria (green), excitation and emission wavelengths were 488 and 500–530 nm, respectively. EPS was visualized using a 405 nm wavelength for excitation and 413–480 nm for emission (blue); to detect proteins or Propidium Iodide (red), a 543 nm wavelength for excitation and 590–610 nm for emission were used. Post-acquisition analyses were performed with Fiji (http://fiji.sc/wiki/index.php, downloaded on 4 April 2022). […]

in vitro = assay type: cell-based, human
Method: (§1) The peptide cytotoxicity against human cells was evaluated using CCD-34Lu-lung fibroblasts and A549-lung adenocarcinoma cells. Moreover, 6 × 10^3 cells in DMEM medium added with 10% FBS were seeded in 96-well sterile plates. After 24 h, cells were incubated with increasing concentrations of peptide (final concentrations of 5, 10, 25, 50, and 100 µM, with an additional concentration of 200 µM in CCD-34Lu) for 24 h at 37 °C (three replicates per condition). Cell viability was measured by removing the exhausted medium, adding 100 µL of DMEM and 20 µL of the MTS solution (Promega). Plates were incubated at 37 °C for 20 min until the complete conversion of the compound. The absorbance was measured at 492 nm using a microplate reader. Cell viability was calculated using the formula: Viability (%)=ODCecB−OD0/ODCtrl−OD0×100, where ODCecB is the OD in the presence of the peptide, ODCtrl is the OD of cells without the peptide, and OD0 is the background absorbance (wells with only medium and MTS compound). The experiment was performed at least twice.

[4] = system: A549 lung adenocarcinoma cells; test: in vitro; assay type: cell-based, human
Method: as §1

[5] = system: CCD-34Lu lung fibroblasts; test: in vitro; assay type: cell-based, human
Method: as §1

Row | Molecule | remaining at 5 h, 1 mg/mL [1] | expression level of fimX [2] | expression level of lasI [2] | expression level of rpoS [2] | expression of algD [2] | expression of pelA [2] | transcription of pslA [2] | red/green (dead/total) cell ratio vs untreated controls [3] | IC50 at 24 h (in vitro) | IC50 at 24 h (in vitro; human) | cell viability ([4]; 50 µM) | cell viability ([4]; 100 µM) | cell viability ([5]; 50 µM) | cell viability ([5]; 100 µM) | cell viability ([5]; 200 µM)
1 | RWKIFKKIEKMGRNIRDGIVKAGPAIQVLGSAKAI-NH2 [L-Q53 CecB] | 0.3% | not significantly different | did not significantly alter | did not significantly alter | None of the analyzed genes were altered | None of the analyzed genes were altered | did not affect | Significant increments |  |  |  |  |  |  | 
2 | CC[C@@H](C)[C@@H](NC(=O)[C@@H](C)NC(=O)[C@@H](CCCCN)NC(=O)[C@@H](C)NC(=O)[C@@H](CO)NC(=O)CNC(=O)[C@@H](CC(C)C)NC(=O)[C@H](NC(=O)[C@@H](CCC(N)=O)NC(=O)[C@H](NC(=O)[C@@H](C)NC(=O)[C@H]1CCCN1C(=O)CNC(=O)[C@@H](C)NC(=O)[C@@H](CCCCN)NC(=O)[C@H](NC(=O)[C@H](NC(=O)CNC(=O)[C@@H](CC(=O)O)NC(=O)[C@@H](CCCNC(=N)N)NC(=O)[C@H](NC(=O)[C@@H](CC(N)=O)NC(=O)[C@@H](CCCNC(=N)N)NC(=O)CNC(=O)[C@@H](CCSC)NC(=O)[C@@H](CCCCN)NC(=O)[C@@H](CCC(=O)O)NC(=O)[C@H](NC(=O)[C@@H](CCCCN)NC(=O)[C@@H](CCCCN)NC(=O)[C@@H](Cc1ccccc1)NC(=O)[C@H](NC(=O)[C@@H](CCCCN)NC(=O)[C@@H](Cc1c[nH]c2ccccc12)NC(=O)[C@H](N)CCCNC(=N)N)[C@H](C)CC)[C@H](C)CC)[C@H](C)CC)[C@H](C)CC)C(C)C)[C@H](C)CC)C(C)C)C(N)=O [D-Q53 CecB] (H-[dR][dW][dK][dI][dF][dK][dK][dI][dE][dK][dM]G[dR][dN][dI][dR][dD]G[dI][dV][dK][dA]G[dP][dA][dI][dQ][dV][dL]G[dS][dA][dK][dA][dI]-NH2; N-terminus and C-terminus assumed) |  | not significantly different | did not significantly alter | did not significantly alter | significantly lower | significantly lower | did not affect | Significant increments | 72.6 ± 2.81 µM | 68 ± 3.71 µM | ~ 79% | ~15% | ~ 85% | ~27% | ~4.5%
